These results are taken from ChEMBL document CHEMBL5728630, “Aryl, heteroaryl, and heterocyclic pharmaceutical compounds for treatment of medical disorders” (2021).

For this assay, the target named is Complement factor D (Homo sapiens, UniProt P00746). The assay is described as follows: Factor D Assay: Human Factor D (purified from human serum, Complement Technology, Inc.) at 80 nM final concentration is incubated with test compound at various concentrations for 5 min at room temperature in 50 mM Tris, 1M NaCl, pH 7.5. A synthetic substrate Z-L-Lys-SBz and DTNB (Ellman's reagent) are added to final concentrations of 100 μM each. Absorbance at 405 nm (A405) is recorded at 30 second intervals for 30 min using a microplate spectrophotometer. IC50 values are calculated by nonlinear regression of complement Factor D reaction rates as a function of test compound concentration.
Complement factor D, sequence (P00746 whole entry): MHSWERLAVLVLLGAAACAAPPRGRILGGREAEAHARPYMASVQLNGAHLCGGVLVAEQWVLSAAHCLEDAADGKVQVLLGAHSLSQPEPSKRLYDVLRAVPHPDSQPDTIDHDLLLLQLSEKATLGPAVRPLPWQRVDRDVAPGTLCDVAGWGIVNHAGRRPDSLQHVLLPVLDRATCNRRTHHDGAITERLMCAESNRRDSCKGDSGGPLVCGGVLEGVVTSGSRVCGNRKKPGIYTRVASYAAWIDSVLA
With `CC(=O)c1nn(CC(=O)N2[C@H](C(=O)Nc3nc(Br)ccc3CCCF)C[C@@]3(C)C[C@@H]23)c2cnc(-c3cnc(C)nc3)cc12`, the half-maximal inhibitory concentration (IC50) – broadly, the point on the concentration scale where inhibition reaches its midpoint – is below 1000 nM.
Take `CC(=O)c1nn(CC(=O)N2[C@H](C(=O)Nc3nc(OC(F)(F)F)ccc3C)C[C@@]3(C)C[C@@H]23)c2c(C)nc(-c3cnc(C)nc3)cc12`: the IC50 is below 1000 nM.
`CC(=O)c1nn(CC(=O)N2[C@H](C(=O)NCCCN)C[C@@]3(C)C[C@@H]23)c2ccc(-c3cnc(C)nc3)cc12`: the IC50 was above 10000 nM.
The value for `CC(=O)c1nn(CC(=O)N2[C@H](C(=O)Nc3nc(Br)ccc3C(O)CO)C[C@@]3(C)C[C@@H]23)c2cnc(-c3cnc(C)nc3)cc12` (some centres not stated) was below 1000 nM; that for `CC(=O)c1nn(CC(=O)N2[C@H](C(=O)Nc3nc(Br)ccc3C)C[C@@]3(C)C[C@@H]23)c2ccc(-c3cnc(CN4CCCC(F)(F)C4)nc3)cc12` was below 1000 nM.
The value for `CC(=O)c1nn(CC(=O)N2[C@@H](C(=O)Nc3nc(Br)ccc3C)C[C@@]3(CC(C)C)C[C@@H]23)c2cnc(-c3cnc(C)nc3)cc12` was above 10000 nM; that for `CC(=O)c1nn(CC(=O)N2[C@H](C(=O)Nc3nc(Br)ccc3C)C[C@@]3(CN(C)C)C[C@@H]23)c2c(C)nc(-c3cnc(C)nc3)cc12` was below 1000 nM; that for `CC(=O)c1nn(CC(=O)N2[C@H](C(=O)Nc3nc(Br)ccc3C)C[C@@]3(CC(F)F)C[C@@H]23)c2cnc(-c3cnc(C)nc3)cc12` was below 1000 nM.
As for `C=Cc1nn(CC(=O)N2[C@H](C(=O)Nc3nc(Br)ccc3C)C[C@@]3(C)C[C@@H]23)c2cnc(-c3cnc(C)nc3)cc12`, the figure is below 1000 nM; as for `CC(=O)c1nn(CC(=O)N2[C@H](C(=O)Nc3nc(Br)ccc3C)C[C@@]3(CN4CCC4)C[C@@H]23)c2c(C)nc(-c3cnc(C)nc3)cc12`, below 1000 nM; as for `CC(=O)c1nn(CC(=O)N2[C@H](C(=O)Nc3nc(Br)ccc3C)C[C@@]3(C)C[C@@H]23)c2c(C3CC3)nc(-c3cnc(C)nc3)cc12`, below 1000 nM.
With `CC(=O)c1nn(CC(=O)N2[C@H](C(=O)Nc3cncc(Br)n3)C[C@@]3(C)C[C@@H]23)c2c(C)nc(-c3cnc(C)nc3)cc12`, the 50% inhibitory concentration (IC50) is below 1000 nM.
The value for `CC(=O)C[C@@]12C[C@@H](C(=O)Nc3nc(Br)ccc3C)N(C(=O)Cn3nc(C(C)=O)c4cc(-c5cnc(C)nc5)ncc43)[C@@H]1C2` was below 1000 nM; that for `CCCCNC(=O)[C@@H]1C[C@@]2(C)C[C@H]2N1C(=O)Cn1nc(C(C)=O)c2cc(-c3cnc(C)nc3)cc(C)c21` was below 1000 nM; that for `CC(=O)c1nn(CC(=O)N2[C@H](C(=O)Nc3nc(Br)ccc3C)C[C@@]3(CNC4=NCCO4)C[C@@H]23)c2cnc(-c3cnc(C)nc3)cc12` was below 1000 nM.
As for `CCCCCNC(=O)[C@@H]1C[C@@]2(C)C[C@H]2N1C(=O)Cn1nc(C(C)=O)c2cc(-c3cnc(C)nc3)cc(C)c21`, the figure is below 1000 nM; as for `CC(=O)c1nn(CC(=O)N2[C@H](C(=O)Nc3nc(Br)ccc3C)C[C@@]3(CN(C)C)C[C@@H]23)c2cnc(-c3cnc(C)nc3)cc12`, below 1000 nM; as for `CC(=O)c1nn(CC(=O)N2[C@H](C(=O)Nc3nc(Br)ccc3C)C[C@@]3(CN4CCCC4)C[C@@H]23)c2c(C)nc(-c3cnc(C)nc3)cc12`, below 1000 nM.
The value for `CC(=O)c1nn(CC(=O)N2[C@H](C(=O)Nc3cc(C)cc(Br)n3)C[C@@]3(C)C[C@@H]23)c2c(C)nc(-c3cnc(C)nc3)cc12` was below 1000 nM; that for `C=C[C@@]12C[C@@H](C(=O)Nc3nc(Br)ccc3Cc3nnc(CCCC)o3)N(C(=O)Cn3nc(C(C)=O)c4cc(-c5cnc(C)nc5)ncc43)[C@@H]1C2` was below 1000 nM; that for `CC(=O)c1nn(CC(=O)N2[C@H](C(=O)NCC(C)C)C[C@@]3(C)C[C@@H]23)c2c(C)cc(-c3cnc(C)nc3)cc12` was below 1000 nM.
For the molecule `CCCNC(=O)[C@@H]1C[C@@]2(C)C[C@H]2N1C(=O)Cn1nc(C(C)=O)c2cc(-c3cnc(C)nc3)cc(C)c21`, the concentration for half-maximal inhibition (IC50) is below 1000 nM.
As for `CC(=O)c1nn(CC(=O)N2[C@H](C(=O)Nc3nc(Br)ccc3C3COC(C)(C)O3)C[C@@]3(C)C[C@@H]23)c2cnc(-c3cnc(C)nc3)cc12` (some centres not stated), the figure is below 1000 nM; as for `CC(=O)c1cn(CC(=O)N2[C@H](C(=O)Nc3nc(Br)ccc3C)C[C@@]3(C)C[C@@H]23)c2cnc(-c3cnc(C)nc3)cc12`, below 1000 nM; as for `CC(=O)c1nn(CC(=O)N2[C@H](C(=O)Nc3nc(Br)ccc3CN3CCn4c(nnc4C(F)(F)F)C3)C[C@@]3(C)C[C@@H]23)c2cnc(-c3cnc(C)nc3)cc12`, below 1000 nM.
The value for `CC(=O)c1nn(CC(=O)N2[C@H](C(=O)Nc3nc(C(F)(F)F)ccc3C)C[C@@]3(C)C[C@@H]23)c2cnc(-c3cnc(C)nc3)cc12` was below 1000 nM; that for `CC(=O)c1nn(CC(=O)N2[C@H](C(=O)Nc3cc(F)cc(Br)n3)C[C@@]3(C)C[C@@H]23)c2c(C)nc(-c3cnc(C)nc3)cc12` was below 1000 nM.
The value for `CNC(=O)c1nn(CC(=O)N2[C@H](C(=O)Nc3nc(Br)ccc3C)C[C@@]3(C)C[C@@H]23)c2ccc(-c3cnc(C)nc3)cc12` was below 1000 nM; that for `CC(=O)c1nn(CC(=O)N2[C@H](C(=O)NCC3CC3)C[C@@]3(C)C[C@@H]23)c2c(C)cc(-c3cnc(C)nc3)cc12` was below 1000 nM.
As for `CC(=O)c1nn(CC(=O)N2[C@H](C(=O)Nc3nc(Br)ccc3C3COC(=O)O3)C[C@@]3(C)C[C@@H]23)c2cnc(-c3cnc(C)nc3)cc12` (some centres not stated), the concentration for half-maximal inhibition (IC50) was below 1000 nM.
The value for `CC(=O)c1nn(CC(=O)N2[C@H](C(=O)Nc3nc(Br)ccc3CN3CCC(C)(F)CC3)C[C@@]3(C)C[C@@H]23)c2cnc(-c3cnc(C)nc3)cc12` was below 1000 nM; that for `CCNC(=O)[C@@H]1C[C@@]2(C)C[C@H]2N1C(=O)Cn1nc(C(C)=O)c2cc(-c3cnc(C)nc3)cc(C)c21` was below 1000 nM.
As for `CCCNC(=O)[C@@H]1C[C@@]2(C)C[C@H]2N1C(=O)Cn1nc(C(C)=O)c2cc(-c3cnc(C)nc3)ccc21`, the figure is below 1000 nM; as for `CC(=O)c1nn(CC(=O)N2[C@H](C(=O)Nc3nc(Br)ccc3C)C[C@@]3(CN4CC(C)(C)C4)C[C@@H]23)c2c(C)nc(-c3cnc(C)nc3)cc12`, below 1000 nM; as for `CC(=O)c1nn(CC(=O)N2[C@H](C(=O)Nc3nc(Br)ccc3C)C[C@@]3(CC(O)CO)C[C@@H]23)c2cnc(-c3cnc(C)nc3)cc12` (some centres not stated), below 1000 nM.
As for `CC(=O)c1nn(CC(=O)N2[C@H](C(=O)Nc3nc(C(F)(F)F)ccc3C)C[C@@]3(C)C[C@@H]23)c2c(C)nc(-c3cnc(C)nc3)cc12`, the IC50 is below 1000 nM.
As for `CC(=O)c1nn(CC(=O)N2[C@H](C(=O)Nc3cncc(Br)n3)C[C@@]3(C)C[C@@H]23)c2cnc(-c3cnc(C)nc3)cc12`, the figure is below 1000 nM; as for `CCC[C@@]12C[C@@H](C(=O)Nc3nc(Br)ccc3C)N(C(=O)Cn3nc(C(C)=O)c4cc(-c5cnc(C)nc5)ncc43)[C@@H]1C2`, below 1000 nM.
The value for `CC(=O)c1nn(CC(=O)N2[C@H](C(=O)Nc3nc(Br)ccc3C)C[C@@]3(CCF)C[C@@H]23)c2cnc(-c3cnc(C)nc3)cc12` was below 1000 nM; that for `CC(=O)c1nn(CC(=O)N2[C@H](C(=O)Nc3nc(Br)ccc3F)C[C@@]3(C)C[C@@H]23)c2cnc(-c3cnc(C)nc3)cc12` was below 1000 nM.
Turning to `Cc1ncc(-c2cc3c(C(C)O)nn(CC(=O)N4[C@H](C(=O)Nc5nc(Br)c(F)cc5C)C[C@@]5(C)C[C@@H]45)c3c(C)n2)cn1` (some centres not stated), the IC50 is below 1000 nM.
With `Cc1ncc(-c2cc(C)c3c(c2)c(C(=O)N2CC4(CCC4)C2)nn3CC(=O)N2[C@H](C(=O)Nc3nc(Br)ccc3C)C[C@@]3(C)C[C@@H]23)cn1`, the concentration for half-maximal inhibition (IC50) was above 10000 nM.
